Results published in ChEMBL document CHEMBL1201862, “PubChem BioAssay data set” (2004).
Calls of active or inactive are those of the source.

Experiments:
Protein RecA = biological target: T1, Protein RecA (Mycobacterium tuberculosis, UniProt P9WHJ3); experiment: Fluorescence Cell-Free Homogeneous Dose Retest to Identify Inhibitors of RecA-Intein Splicing Activity. [Related pubchem assays (depositor defined):AID2097, AID2223, AID489010, AID492950]; type: functional
T1 sequence (P9WHJ3 whole entry): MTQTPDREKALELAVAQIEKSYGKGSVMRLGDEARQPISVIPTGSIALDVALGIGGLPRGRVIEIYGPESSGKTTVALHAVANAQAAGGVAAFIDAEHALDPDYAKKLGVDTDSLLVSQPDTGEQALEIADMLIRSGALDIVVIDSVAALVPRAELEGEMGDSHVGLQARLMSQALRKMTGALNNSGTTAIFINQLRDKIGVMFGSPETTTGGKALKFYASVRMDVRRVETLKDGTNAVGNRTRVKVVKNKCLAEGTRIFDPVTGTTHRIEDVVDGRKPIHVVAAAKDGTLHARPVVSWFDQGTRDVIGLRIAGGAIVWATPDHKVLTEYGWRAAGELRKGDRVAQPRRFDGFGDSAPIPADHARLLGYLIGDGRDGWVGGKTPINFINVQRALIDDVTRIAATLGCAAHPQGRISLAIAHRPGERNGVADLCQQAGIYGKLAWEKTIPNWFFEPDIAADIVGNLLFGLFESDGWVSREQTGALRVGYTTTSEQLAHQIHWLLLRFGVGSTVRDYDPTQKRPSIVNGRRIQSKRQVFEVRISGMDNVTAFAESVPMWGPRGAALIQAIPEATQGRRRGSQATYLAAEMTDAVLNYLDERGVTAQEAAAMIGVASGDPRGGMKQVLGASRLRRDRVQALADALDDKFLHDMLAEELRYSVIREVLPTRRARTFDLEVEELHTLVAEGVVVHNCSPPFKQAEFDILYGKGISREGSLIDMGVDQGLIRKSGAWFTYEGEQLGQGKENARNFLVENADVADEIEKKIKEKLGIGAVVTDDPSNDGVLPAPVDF

[1] = biological target: Sphingosine 1-phosphate receptor 1 (Homo sapiens, UniProt P21453); type: functional;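 further: Tango beta-arrestin reporter U2OS cells stimulated with S1P near its EC80; inhibitor potency meaning antagonism of receptor activation by the natural agonist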
[2] = biological target: T2, Replicative DNA helicase DnaB (Mycobacterium tuberculosis, UniProt P9WMR3); experiment: DnaB intein splicing inhibitors, dose response, biochemical, cell-free fluorescence (AID 449749); type: functional
T2 sequence (P9WMR3 whole entry): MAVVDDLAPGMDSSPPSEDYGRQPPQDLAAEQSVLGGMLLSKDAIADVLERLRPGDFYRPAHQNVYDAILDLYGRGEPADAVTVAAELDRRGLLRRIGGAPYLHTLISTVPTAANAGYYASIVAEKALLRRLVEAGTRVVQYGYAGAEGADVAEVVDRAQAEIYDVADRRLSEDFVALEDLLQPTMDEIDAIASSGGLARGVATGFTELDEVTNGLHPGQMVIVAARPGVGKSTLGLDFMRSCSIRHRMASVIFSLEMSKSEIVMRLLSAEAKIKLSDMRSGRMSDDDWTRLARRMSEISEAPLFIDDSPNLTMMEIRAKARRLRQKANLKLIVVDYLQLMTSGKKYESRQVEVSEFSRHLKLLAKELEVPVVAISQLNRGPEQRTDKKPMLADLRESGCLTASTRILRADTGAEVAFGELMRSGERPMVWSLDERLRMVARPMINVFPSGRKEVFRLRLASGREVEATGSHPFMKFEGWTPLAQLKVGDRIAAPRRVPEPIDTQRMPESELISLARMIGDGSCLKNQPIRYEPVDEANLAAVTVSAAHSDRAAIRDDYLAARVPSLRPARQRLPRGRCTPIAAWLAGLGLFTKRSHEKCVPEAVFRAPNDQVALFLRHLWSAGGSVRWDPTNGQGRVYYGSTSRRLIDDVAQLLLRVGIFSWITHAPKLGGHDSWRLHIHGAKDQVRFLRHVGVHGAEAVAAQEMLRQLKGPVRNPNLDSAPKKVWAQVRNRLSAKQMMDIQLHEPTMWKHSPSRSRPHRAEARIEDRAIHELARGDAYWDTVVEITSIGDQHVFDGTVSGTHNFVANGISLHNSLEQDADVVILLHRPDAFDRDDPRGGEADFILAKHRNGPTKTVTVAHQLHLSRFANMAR

[3] = biological target: Sphingosine 1-phosphate receptor 2 (Homo sapiens, UniProt O95136); experiment: Dose Response Cell Based Assay for Antagonists of the S1P2 Receptor. [Related pubchem assays: 856, 736 ]; type: functional
[4] = biological target: Luciferin 4-monooxygenase (Photinus pyralis, UniProt P08659); experiment: Counter Screen for Luciferase-based Assay Positives. [Related pubchem assays: 620, 618, 411 ]
[5] = biological target: T3, Sphingosine 1-phosphate receptor 4 (Homo sapiens, UniProt O95977); experiment: Late stage fluorescence dose response cell-based screening assay for antagonists of the Sphingosine 1-Phosphate Receptor 4 (S1P4). [Related pubchem assays: 1524 (Confirmation screen (S1P4 antagonists).), 1510 (Primary screen (S1P4 antagonists).), 1853 (Summary AID (S1P4 antagonists).), 1692 (Dose response screen (S1P4 antagonists).)]; type: functional
T3 sequence (O95977 whole entry): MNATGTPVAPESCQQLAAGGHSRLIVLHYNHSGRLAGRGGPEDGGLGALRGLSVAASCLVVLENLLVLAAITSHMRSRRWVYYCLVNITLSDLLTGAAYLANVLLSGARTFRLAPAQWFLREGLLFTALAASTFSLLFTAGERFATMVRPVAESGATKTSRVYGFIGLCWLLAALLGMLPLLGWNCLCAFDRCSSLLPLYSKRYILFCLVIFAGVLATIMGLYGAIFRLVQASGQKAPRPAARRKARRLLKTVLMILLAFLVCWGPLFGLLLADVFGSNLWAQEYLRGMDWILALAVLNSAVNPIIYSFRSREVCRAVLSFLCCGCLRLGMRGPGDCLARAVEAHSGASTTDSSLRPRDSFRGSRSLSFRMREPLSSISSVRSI

HT-1080 = experiment: HT1080 cell viability loss – fluorescence readout (AID 620); type: functional, cell-based; conditions: Homo sapiens
[6] = biological target: T3, Sphingosine 1-phosphate receptor 4; experiment: Fluorescence dose response cell-based high throughput screening assay for antagonists of the Sphingosine 1-Phosphate Receptor 4 (S1P4). [Related pubchem assays: 1524 (Confirmation in triplicates.), 1510 (Primary screen.)]; type: functional
[7] = biological target: Diphosphomevalonate decarboxylase (Streptococcus pneumoniae serotype 2 (strain D39 / NCTC 7466), UniProt Q9FD53); experiment: diphosphomevalonate decarboxylase inhibitor confirmation – biochemical, cuvette format, coupled NADH fluorescence (AID 1028); type: functional
Vero = experiment: inhibition of WNV-induced cytopathic effect – cell-based, CPE readout (AID 1621); type: functional; conditions: Chlorocebus sabaeus
[8] = M. tuberculosis growth inhibition, HTS (AID 449762); type: functional
[9] = THP-1 cell cytotoxicity, dose response, cytotoxicity control for non-replicating M. tuberculosis project (AID 489025); type: functional
[10] = biological target: T4, Eukaryotic translation initiation factor 2-alpha kinase 3 (Homo sapiens, UniProt Q9NZJ5); experiment: Counterscreen assay for PERK inhibitors: Dose response cell-based high throughput screening assay to measure inhibition of PERK at 6 hours. [Related pubchem assays: 1522, 1416 ]; type: functional
T4 sequence (Q9NZJ5 whole entry): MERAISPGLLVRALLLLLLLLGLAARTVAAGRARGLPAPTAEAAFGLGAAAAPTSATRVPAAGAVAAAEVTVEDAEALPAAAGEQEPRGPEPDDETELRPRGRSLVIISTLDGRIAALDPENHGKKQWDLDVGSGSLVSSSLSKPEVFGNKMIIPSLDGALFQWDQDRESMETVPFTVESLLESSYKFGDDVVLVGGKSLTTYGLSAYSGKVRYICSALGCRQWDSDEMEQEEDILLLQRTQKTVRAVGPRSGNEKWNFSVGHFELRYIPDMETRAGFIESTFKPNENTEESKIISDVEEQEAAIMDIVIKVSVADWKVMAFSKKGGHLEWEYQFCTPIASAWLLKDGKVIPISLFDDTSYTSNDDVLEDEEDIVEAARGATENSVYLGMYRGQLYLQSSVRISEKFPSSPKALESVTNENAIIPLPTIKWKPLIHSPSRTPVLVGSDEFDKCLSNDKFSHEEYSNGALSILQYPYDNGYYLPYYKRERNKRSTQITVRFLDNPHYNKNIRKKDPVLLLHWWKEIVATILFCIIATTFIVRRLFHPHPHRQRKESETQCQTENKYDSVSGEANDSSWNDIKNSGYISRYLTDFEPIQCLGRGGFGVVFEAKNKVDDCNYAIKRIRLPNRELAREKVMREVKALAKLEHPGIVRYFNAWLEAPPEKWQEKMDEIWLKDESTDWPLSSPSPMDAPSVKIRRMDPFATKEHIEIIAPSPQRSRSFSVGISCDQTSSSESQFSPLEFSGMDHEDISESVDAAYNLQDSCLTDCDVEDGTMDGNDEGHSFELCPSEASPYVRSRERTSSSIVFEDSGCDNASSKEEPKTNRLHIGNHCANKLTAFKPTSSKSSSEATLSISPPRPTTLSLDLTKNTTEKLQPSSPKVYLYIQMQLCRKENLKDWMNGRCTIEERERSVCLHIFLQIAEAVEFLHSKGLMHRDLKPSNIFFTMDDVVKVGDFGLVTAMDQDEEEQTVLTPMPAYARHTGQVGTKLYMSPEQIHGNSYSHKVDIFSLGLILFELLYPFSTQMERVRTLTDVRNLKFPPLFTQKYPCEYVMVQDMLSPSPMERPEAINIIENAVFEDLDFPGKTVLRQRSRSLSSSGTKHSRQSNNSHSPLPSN

[11] = biological target: T4, Eukaryotic translation initiation factor 2-alpha kinase 3; experiment: Dose response cell-based high-throughput screening assay to measure PERK inhibition. [Related pubchem assays: 1416 ]; type: functional
Albumin = Albumin (Bos taurus, UniProt P02769); experiment: Counterscreen for inhibitors of T-cell receptor (TCR)-CD3 interaction: Fluorescence-based biochemical high throughput dose response assay to identify inhibitors of T-cell receptor (TCR)-CD3 interaction using a TAMRA-labeled BSA probe.; type: functional
Bcl-2-like protein 1 = Bcl-2-like protein 1 (Homo sapiens, UniProt Q07817); experiment: blockers of BCLXL peptide binding – biochemical, fluorescence polarization, 1536-well, selectivity assay for MCL1 inhibitor project, dose response (AID 2218)
Genome polyprotein = Genome polyprotein (Hepatitis C virus, UniProt Q2Q167); experiment: disruption of hepatitis C core self-association – biochemical, TR-FRET, dose response (AID 2159); parameters: species or system Hepacivirus hominis;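 further: blocks dimerization of HCV core protein measured by TR-FRET between tagged core106 pairs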
[12] = biological target: T5, Small ubiquitin-related modifier 1 (Homo sapiens, UniProt P63165); experiment: SUMO1 protein-protein binding blockers, potency – biochemical, FRET, dose response (AID 624383); type: functional; conditions: read-out: IC50_Mean
[13] = biological target: Induced myeloid leukemia cell differentiation protein Mcl-1 (Homo sapiens, UniProt Q07820); experiment: blockers of MCL1 binding to BIM peptide – biochemical, fluorescence polarization, BIM-BH3 peptide, 1536-well, dose response (AID 2217)
[14] = biological target: DNA (cytosine-5)-methyltransferase 1 (Homo sapiens, UniProt P26358); experiment: inhibition of DNA methylation by DNMT1 – biochemical, fluorescent molecular beacon, confirmation (AID 602386); type: functional
[15] = biological target: T5, Small ubiquitin-related modifier 1; experiment: SUMO1 protein interaction blockers, potency – biochemical, fluorescence polarization, uHTS hits, dose response (AID 624382); type: functional; conditions: read-out: IC50_Mean
Danio rerio = experiment: In Vivo Angiogenesis Dose-Response Confirmation. [Related pubchem assays: 732 (Assay preceding this confirmatory assay.)]; type: functional, organism-based

T5 sequence (P63165 whole entry): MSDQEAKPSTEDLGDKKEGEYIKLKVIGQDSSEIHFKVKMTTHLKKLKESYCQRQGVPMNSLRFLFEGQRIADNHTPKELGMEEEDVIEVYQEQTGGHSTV
Albumin, sequence (P02769 whole entry): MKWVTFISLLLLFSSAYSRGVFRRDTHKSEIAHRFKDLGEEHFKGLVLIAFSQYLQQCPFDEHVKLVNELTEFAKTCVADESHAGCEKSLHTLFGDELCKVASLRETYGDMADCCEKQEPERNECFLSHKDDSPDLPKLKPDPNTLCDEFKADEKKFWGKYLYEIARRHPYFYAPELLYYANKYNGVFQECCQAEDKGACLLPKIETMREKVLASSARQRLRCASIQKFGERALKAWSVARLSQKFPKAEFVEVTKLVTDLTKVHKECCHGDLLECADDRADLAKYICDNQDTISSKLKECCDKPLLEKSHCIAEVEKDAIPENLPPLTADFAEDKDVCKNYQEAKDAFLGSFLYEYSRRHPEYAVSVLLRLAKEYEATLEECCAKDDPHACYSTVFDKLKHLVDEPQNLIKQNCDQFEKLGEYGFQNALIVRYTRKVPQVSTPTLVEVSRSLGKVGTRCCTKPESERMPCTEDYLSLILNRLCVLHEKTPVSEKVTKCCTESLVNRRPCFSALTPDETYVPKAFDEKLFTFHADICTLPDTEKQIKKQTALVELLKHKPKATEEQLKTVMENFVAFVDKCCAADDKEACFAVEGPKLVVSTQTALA
Induced myeloid leukemia cell differentiation protein Mcl-1, sequence (Q07820 whole entry): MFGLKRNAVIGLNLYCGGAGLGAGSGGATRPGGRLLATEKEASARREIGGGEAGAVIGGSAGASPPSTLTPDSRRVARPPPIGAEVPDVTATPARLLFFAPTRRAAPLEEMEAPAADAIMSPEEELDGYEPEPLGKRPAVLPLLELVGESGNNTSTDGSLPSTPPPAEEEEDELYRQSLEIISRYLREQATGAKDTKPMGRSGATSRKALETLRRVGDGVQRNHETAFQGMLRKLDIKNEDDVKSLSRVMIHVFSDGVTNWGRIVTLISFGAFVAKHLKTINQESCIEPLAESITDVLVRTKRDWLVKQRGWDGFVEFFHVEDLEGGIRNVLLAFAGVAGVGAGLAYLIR
Sphingosine 1-phosphate receptor 2, sequence (O95136 whole entry): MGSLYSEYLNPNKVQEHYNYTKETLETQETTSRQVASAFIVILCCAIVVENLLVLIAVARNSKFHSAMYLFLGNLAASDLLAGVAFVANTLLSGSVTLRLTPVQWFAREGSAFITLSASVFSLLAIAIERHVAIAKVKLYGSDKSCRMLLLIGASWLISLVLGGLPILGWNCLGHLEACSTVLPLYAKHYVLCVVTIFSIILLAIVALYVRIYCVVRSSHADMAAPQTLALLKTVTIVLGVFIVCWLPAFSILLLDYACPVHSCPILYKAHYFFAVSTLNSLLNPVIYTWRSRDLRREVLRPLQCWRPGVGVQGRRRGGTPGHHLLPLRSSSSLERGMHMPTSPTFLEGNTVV
Diphosphomevalonate decarboxylase, sequence (Q9FD53 whole entry): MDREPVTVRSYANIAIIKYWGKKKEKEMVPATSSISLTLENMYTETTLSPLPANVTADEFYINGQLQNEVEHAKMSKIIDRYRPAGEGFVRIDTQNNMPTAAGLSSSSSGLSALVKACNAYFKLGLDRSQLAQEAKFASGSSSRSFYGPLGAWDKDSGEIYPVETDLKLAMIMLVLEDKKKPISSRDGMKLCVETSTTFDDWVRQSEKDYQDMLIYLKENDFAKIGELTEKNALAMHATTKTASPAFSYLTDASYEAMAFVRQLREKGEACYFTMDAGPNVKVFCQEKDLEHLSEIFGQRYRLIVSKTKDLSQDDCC
Genome polyprotein, sequence (Q2Q167 whole entry): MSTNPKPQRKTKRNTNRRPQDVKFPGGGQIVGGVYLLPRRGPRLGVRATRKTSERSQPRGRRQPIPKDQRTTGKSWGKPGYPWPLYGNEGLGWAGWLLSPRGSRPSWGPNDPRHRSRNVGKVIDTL
Luciferin 4-monooxygenase, sequence (P08659 whole entry): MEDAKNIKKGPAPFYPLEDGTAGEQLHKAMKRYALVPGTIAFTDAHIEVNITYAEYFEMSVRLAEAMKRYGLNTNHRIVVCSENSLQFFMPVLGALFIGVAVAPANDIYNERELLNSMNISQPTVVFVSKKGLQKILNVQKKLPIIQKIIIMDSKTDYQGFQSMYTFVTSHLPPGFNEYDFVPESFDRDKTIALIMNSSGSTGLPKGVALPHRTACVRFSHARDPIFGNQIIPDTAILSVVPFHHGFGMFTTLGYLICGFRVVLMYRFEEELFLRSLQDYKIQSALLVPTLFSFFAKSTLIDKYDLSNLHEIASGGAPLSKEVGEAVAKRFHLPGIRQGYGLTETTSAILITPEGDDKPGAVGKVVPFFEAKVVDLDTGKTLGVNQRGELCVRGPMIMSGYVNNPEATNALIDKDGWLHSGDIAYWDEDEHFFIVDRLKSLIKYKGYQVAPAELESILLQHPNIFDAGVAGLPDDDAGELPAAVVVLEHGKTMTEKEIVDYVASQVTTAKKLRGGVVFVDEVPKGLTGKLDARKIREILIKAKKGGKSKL
Sphingosine 1-phosphate receptor 1, sequence (P21453 whole entry): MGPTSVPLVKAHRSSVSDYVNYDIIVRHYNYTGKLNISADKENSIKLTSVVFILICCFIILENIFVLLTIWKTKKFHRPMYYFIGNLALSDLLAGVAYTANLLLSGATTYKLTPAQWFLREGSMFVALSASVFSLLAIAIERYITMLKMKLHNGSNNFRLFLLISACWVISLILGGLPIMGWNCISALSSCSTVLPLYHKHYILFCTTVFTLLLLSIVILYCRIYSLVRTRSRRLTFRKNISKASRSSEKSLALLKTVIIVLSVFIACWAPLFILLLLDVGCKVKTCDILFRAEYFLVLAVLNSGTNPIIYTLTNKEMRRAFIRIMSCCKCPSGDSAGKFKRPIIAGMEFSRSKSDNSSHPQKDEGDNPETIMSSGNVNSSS
DNA (cytosine-5)-methyltransferase 1, sequence (P26358 whole entry): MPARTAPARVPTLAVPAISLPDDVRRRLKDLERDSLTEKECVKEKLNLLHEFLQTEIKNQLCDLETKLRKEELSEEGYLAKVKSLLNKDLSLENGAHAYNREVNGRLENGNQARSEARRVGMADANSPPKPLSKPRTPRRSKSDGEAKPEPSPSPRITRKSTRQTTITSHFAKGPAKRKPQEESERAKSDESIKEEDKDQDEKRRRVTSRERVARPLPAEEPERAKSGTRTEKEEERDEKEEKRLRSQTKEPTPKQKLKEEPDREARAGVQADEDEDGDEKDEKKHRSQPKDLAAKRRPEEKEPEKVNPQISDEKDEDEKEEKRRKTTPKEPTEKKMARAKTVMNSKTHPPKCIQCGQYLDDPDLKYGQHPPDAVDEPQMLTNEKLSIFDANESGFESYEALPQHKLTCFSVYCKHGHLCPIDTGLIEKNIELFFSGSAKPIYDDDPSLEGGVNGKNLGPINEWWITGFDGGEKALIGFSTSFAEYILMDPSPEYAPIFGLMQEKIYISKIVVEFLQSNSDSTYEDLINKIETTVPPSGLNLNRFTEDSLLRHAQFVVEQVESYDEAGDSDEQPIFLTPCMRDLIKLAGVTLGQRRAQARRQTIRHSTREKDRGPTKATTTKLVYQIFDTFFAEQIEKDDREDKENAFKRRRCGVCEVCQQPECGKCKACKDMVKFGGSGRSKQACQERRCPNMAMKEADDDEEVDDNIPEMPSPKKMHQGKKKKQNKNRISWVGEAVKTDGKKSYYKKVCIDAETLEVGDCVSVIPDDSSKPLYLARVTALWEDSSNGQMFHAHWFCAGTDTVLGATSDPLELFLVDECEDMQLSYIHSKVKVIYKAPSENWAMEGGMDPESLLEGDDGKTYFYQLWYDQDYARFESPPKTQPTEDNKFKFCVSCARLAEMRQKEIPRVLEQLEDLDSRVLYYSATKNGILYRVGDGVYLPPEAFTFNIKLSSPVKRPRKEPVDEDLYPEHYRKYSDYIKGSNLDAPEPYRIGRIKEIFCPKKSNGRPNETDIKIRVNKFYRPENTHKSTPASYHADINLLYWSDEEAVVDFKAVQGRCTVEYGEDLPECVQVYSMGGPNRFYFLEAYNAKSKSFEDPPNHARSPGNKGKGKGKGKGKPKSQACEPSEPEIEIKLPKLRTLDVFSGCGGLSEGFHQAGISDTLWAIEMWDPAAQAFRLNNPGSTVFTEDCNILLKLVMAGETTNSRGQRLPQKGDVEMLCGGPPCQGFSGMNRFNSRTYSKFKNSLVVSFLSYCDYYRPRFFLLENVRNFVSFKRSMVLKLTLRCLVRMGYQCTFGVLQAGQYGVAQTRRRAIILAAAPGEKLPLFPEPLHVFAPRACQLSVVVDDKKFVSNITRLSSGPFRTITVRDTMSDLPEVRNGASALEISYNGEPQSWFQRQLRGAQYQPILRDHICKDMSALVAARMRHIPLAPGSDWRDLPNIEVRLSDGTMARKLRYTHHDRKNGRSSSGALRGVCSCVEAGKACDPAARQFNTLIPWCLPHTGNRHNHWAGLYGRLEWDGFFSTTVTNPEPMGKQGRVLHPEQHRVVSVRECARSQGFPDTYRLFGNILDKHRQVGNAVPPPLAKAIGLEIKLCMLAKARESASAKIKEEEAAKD
Bcl-2-like protein 1, sequence (Q07817 whole entry): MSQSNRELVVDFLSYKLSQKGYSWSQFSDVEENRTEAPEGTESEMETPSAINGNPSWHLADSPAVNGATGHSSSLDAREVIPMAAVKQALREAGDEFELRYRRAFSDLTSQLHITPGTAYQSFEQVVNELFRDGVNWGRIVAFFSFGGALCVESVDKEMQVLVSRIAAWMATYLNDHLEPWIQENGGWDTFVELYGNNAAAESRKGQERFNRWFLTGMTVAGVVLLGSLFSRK

Structure (SMILES): COc1ccc(NC(=O)/C(Cl)=C(/Cl)S(=O)(=O)Cc2ccc(C)cc2)cn1
- EC50 (Protein RecA): 2.71 µM (active)
- IC50 [1]: 7.07 µM (active)
- AC50 [2]: 4.27 µM (active)
- IC50 [3]: 1.48 µM (active)
- EC50 [4]: < 0.2 µM (active)
- IC50 [5]: 15.4 µM (not active)
- EC50 (HT-1080): 18.8 µM (active)
- IC50 [6]: 0.564 µM (active)

Structure (SMILES): O=C(c1ccc(-n2sc3ccccc3c2=O)cc1)N1CCCCC1
- IC50 [7]: 14.3 µM (active)

Structure (SMILES): COc1cc(CNC(C)(C)CO)cc(Br)c1OCc1ccc(Cl)cc1
- IC50 (Vero): 19.1 µM (active)

Structure (SMILES): O=Cc1ccc(-c2ccc(Cl)cc2Cl)[nH]1
- IC50 [8]: > 100 µM (active)
- CC50 [9]: > 40 µM (active)
- EC50 [10]: > 55.7 µM (not active)
- EC50 [11]: > 55.7 µM (not active)

Structure (SMILES): O=C1COc2ccc(C(=O)COC(=O)/C=C/c3ccc(Br)o3)cc2N1
- IC50 (Albumin): > 94.1 µM (inactive)
- IC50 (Bcl-2-like protein 1): > 109 µM (not active)
- IC50 (Genome polyprotein): > 49.8 µM (not active)
- IC50 [12]: 4.57 µM (active)
- IC50 [13]: > 4.03 µM (active)
- IC50 [14]: 12.2 µM (active)
- IC50 [15]: > 66.6 µM (inactive)

Structure (SMILES): O=C1Nc2ccccc2/C1=C1/Nc2ccccc2C1=O [INDIRUBIN]
- IC50 (Danio rerio): < 0.1 µM (not active)
